Several values for one entry are separate records, joined by “and”; a condition that tells them apart may be missing. Equal entries are not always repeated.
Tests used:
Format in all cases: cell-based, human
[1] = tested on: FLIP; assay: FLIP protein by Western blot and flow cytometry in IPF-lung myofibroblasts; settings: 16 h
Method: (§1) Human lung myofibroblasts Differentiated fibroblasts from IPF-lungs and controls from patient lung biopsies performed for tumor diagnosis were obtained under a protocol detailed in Wallach-Dayan et al., J. Autoimmun. 59: 67-76, 2015. LL 97A (AlMy) (ATCC® CCL-191™)-IPF-lung, and LL 24 (ATCC® CCL-151™)-normal lung fibroblast cell lines were used.
FLIP protein in lung myofibroblasts Standard WB and flow cytometry were performed as described in Cohen et al., Am. J. Respir. Cell Mol. Biol. 40: 231-238, 2009.
(§2) FLIP downregulation from an OD of 1.85 to 0.49 (about 3.5-fold) was detected in WB (FIG. 4F), and a […] from a mean fluorescence intensity (MFI)=10^3 to only 10^1 was detected with flow cytometry (FIG. 4G). Thus, SIRT1-mediated Ku70-deacetylation stabilizes IPF-lung myofibroblast FLIP via Ku70/FLIP complex. This effect of CMH on Ku70 further disrupts Ku70/FLIP complex and destabilizes FLIP in IPF-lung myofibroblasts.
(§3) IPF cell line ATCC-191 (0.5×10^6), were exposed in culture (10% DMEM) to a compound of Formula 6 (1 or 3 μM) vs. 4% DMSO (vehicle) for 16 h. Ku70 immunoprecipitation with subsequent pan-acetyl (FIG. 8A) and immunoblots of Ku70 with anti-Ku70 mAb (FIG. 8B) or FLIP with anti-FLIP mAb (FIG. 8C) were measured. […] IPF-lung myofibroblasts decreased FLIP expression from an OD of 1.00 to 0.51 (about twofold, FIG. 8C).
IPF cell line ATCC-191 (0.5×10^6), were exposed in culture (10% DMEM) to a compound of Formula 12 (1 μM), vs. 4% DMSO (vehicle) for 16 h. Immunoblots of FLIP with anti-FLIP mAb were performed (FIG. 9). […] Thus, the compound of Formula 12 attenuates FLIP stabilization in IPF-lung myofibroblast.

[2] = tested on: Ku70; assay: Ku70 immunoprecipitation with pan-acetyl / Ku70 immunoblot in IPF-lung myofibroblasts
Method: as §1
Immunoprecipitation and immunoblotting Standard protocols were performed as described in Golan-Gerstl et al., Am. J. Respir. Cell Mol. Biol. 47: 271-279, 2012.
as §2, §3

[3] = tested on: IPF cell line ATCC-191; assay: Caspase-3 cleaved vs. uncleaved immunoblot (direct cytotoxicity); settings: 72 h
Method: IPF cell line ATCC-191 (0.5×10^6), were exposed in culture (10% DMEM) to a compound of Formula 6 (0.1-30 μM) vs. 4% DMSO (vehicle) for 72 h. Cells were lysed and immunoblots of caspase-3 cleaved vs. uncleaved were performed. […] Lower concentrations of a compound of Formula 6 treated cells even decreased their ratio indicating no toxicity of the analogue at these concentrations.

## COc1ccc(OCCCCC(=O)NO)cc1 [Formula 12]
[1]; Formula 12 1 μM
  Decrease of FLIP levels: about twofold
[1]; Formula 12 1 μM, ATCC-191, vehicle 9.5, 13.3 and 8.4
  FLIP levels, optical density ratio to GAPDH (OD): 4.7 OD and 3.7 OD and 4.8 OD

## O=C(CCCCOc1ccc2ccccc2c1)NO [Formula 6]
[2]; Formula 6 1 μM, 16 h
  Increase of Ku70 acetylation: about 80 fold
  Ku70 levels (anti-Ku70 immunoblot): without changing
[2]; Formula 6 1 μM, 16 h, ATCC-191, vehicle 0.007
  Ku70 acetylation, optical density ratio to GAPDH (OD), pan-acetyl IB of Ku70 IP: 0.55 OD
[2]; IPF-lung myofibroblasts
  Inhibition of Ku70-deacetylation compared with CMH: to a greater extent than CMH
[1]; Formula 6 1 or 3 μM
  Decrease of FLIP expression: about twofold
[1]; Formula 6 1 or 3 μM, ATCC-191, vehicle 1.00
  FLIP expression OD (anti-FLIP immunoblot): 0.51 OD
[3]; 0.1 μM
  Cleaved caspase-3: 7.5
  Cleaved/Uncleaved caspase-3: 0.27
  Uncleaved caspase-3: 27.37
[3]; 0.3 μM
  Cleaved caspase-3: 11.66
  Cleaved/Uncleaved caspase-3: 0.18
  Uncleaved caspase-3: 65.84
[3]; 1 μM
  Cleaved caspase-3: 27.59
  Cleaved/Uncleaved caspase-3: 0.46
  Uncleaved caspase-3: 60.57
[3]; 3 μM
  Cleaved caspase-3: 81.78
  Cleaved/Uncleaved caspase-3: 1.10
  Uncleaved caspase-3: 74.31
[3]; 10 μM
  Cleaved caspase-3: 112.38
  Cleaved/Uncleaved caspase-3: 1.43
  Uncleaved caspase-3: 78.84
[3]; 30 μM
  Cleaved caspase-3: 93.19
  Cleaved/Uncleaved caspase-3: 2.49
  Uncleaved caspase-3: 37.4
[3]; 0.1-30 μM, in the absence of Fas
  Direct cytotoxic effects on cells: does not exert direct cytotoxic effects
